Tested on: sleep of mice
Assay: Effect on 24-hour sleep of mice (EEG and electromyograph recording)
Format: in vivo, Male Bal b/c mice
Conditions: standard substances dosed according to their identified contents in the extract; intragastric, D1 to D14; FIG. 3
Excerpt: The BAL b/c mice is used as a model in the present invention, and the electrophysiological technology is adopted, wherein electrodes are implanted in the brain of the mice, and the brain wave changes of mice after drug administration is real time 24-hour monitored for 14 days, thereby determining that the functional active substances in the peanut stem and leaf extract provided by the present invention have a significant sleep promoting function.
Experiment of the effect of the peanut stem and leaf extract prepared in Example 1 on sleep of mice
The peanut stem and leaf extract prepared according to the method of Example 1 was used as an experimental drug, and the standard drugs were administered to the mice according to the identified contents of the substances such as naringenin-4,7′-dimethyl ether.
The experiment was divided into a control group, extract groups (three groups of low, medium and high doses), a positive control group and a functional factor group (four functional active substances). Male Bal b/c mice were used, 6 mice for each group.
The mice were anesthetized at abdominal cavity with chloral hydrate (4%) at 0.10 mL/10 g. After the pain reflex disappeared, the mice were fixed on a mouse brain stereotactic adapter, and the hair on the head of the mice was cut off and 75% alcohol was used to disinfect the skin, the skin was cut along the midline of the skull, and the subcutaneous tissue was separated to fully expose the skull. […] The electroencephalo-graph (EEG) electrodes were fixed on the skull with tissue glue and dental cement successively, and the EEG electrode was connected to a screw (fixed in the hole drilled on the skull) to touch the cerebral dura mater by a silver wire to record cortical EEG activity. The two silver wires connected to the myoelectric electrodes were inserted into the muscles on both sides of the neck of the mouse to record the myoelectric activity. The electrode base was then fixed to the skull with tissue glue and dental cement. Mice were injected with penicillin after surgery (measuring 80,000 units/day for three consecutive days). The mice were raised separately in a shielding box with constant temperature, constant humidity, sound insulation and electrostatic shielding function during the recovery period after surgery. The cables for recording EEG and myoelectricity were connected to the electrodes on the head of the mouse on the second day after surgery, and the mice were allowed to adapt for 7 days. […] The EEG and electromyograph of mice that recovered and adapted to the experimental environment began to be recorded from 8:00 in the morning for 24 hours, and this day was recorded as D0. […] The EEG and electromyograph were recorded on the D7 and D14, and the brain tissue was taken after gavage at 8:00 in the morning on D15.

SMILES	sleep time of mice (24-hour sleep)
COc1cc(O)ccc1C(=O)/C=C/c1ccc(O)cc1 [2′-O-methylisoliquiritigenin]	significantly improve
COc1ccc(C2CC(=O)c3c(O)cc(OC)cc3O2)cc1 (stereo not shown) [naringenin-4,7′-dimethyl ether]	significantly improve
COc1cc(/C=C/C(=O)O)ccc1O [ferulic acid]	significantly improve
C=CC(C)(O)CCC=C(C)C (stereo not shown) [linalool]	significantly improve

Source: patent US20220088103A1, “PEANUT STEM AND LEAF EXTRACT AND PREPARATION METHOD AND USE THEREOF” (INSTITUTE OF FOOD SCIENCE AND TECHNOLOGY, CHINESE ACADEMY …, priority 2019, published 2022)
